Data reported in the supplement of paper PMC4862054.

How the values were obtained:
Settings in all cases: incubation time: 72 h
[1] = test system: BT-474; experiment: normalised response (% of control), CellTox Green; higher = less cell death (100 = DMSO, 0 = benzethonium chloride kill control)
In short: (§1)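 The table gives the normalised signal for a single concentration in each entry. Breast cancer cell lines were seeded (20 µl suspension) into 384-well plates holding compound at 5 concentrations in 10-fold steps over a compound-specific 10,000-fold range and incubated 72 h, then read for CellTox Green fluorescence (485/520 nm) and CellTiter-Glo luminescence. Normalisation on each plate used 0.1 % DMSO (100) and a positive kill control (0).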

[2] = test system: BT-549; experiment: as above
In short: as §1

[3] = test system: CAL-120; experiment: as above
In short: as §1

[4] = test system: CAL-148; experiment: as above
In short: as §1

[5] = test system: CAL-51; experiment: as above
In short: as §1

[6] = test system: CAL-85-1; experiment: as above
In short: as §1

[7] = test system: DU-4475; experiment: as above
In short: as §1

[8] = test system: HCC1143; experiment: as above
In short: as §1

[9] = test system: HCC1599; experiment: as above
In short: as §1

[10] = test system: HCC1937; experiment: as above
In short: as §1

[11] = test system: HDQ-P1; experiment: as above
In short: as §1

[12] = test system: Hs578T; experiment: as above
In short: as §1

[13] = test system: MCF-10A; experiment: as above
In short: as §1

[14] = test system: MDA-MB-231; experiment: as above
In short: as §1

[15] = test system: MDA-MB-436; experiment: as above
In short: as §1

[16] = test system: MDA-MB-453; experiment: as above
In short: as §1

[17] = test system: MDA-MB-468; experiment: as above
In short: as §1

[18] = test system: MFM-223; experiment: as above
In short: as §1

[19] = test system: BT-474; experiment: normalised response (% of control), CellTiter-Glo; higher = more viable cells (100 = DMSO, 0 = benzethonium chloride kill control)
Protocol: (§2)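 DSRT, 72 h incubation, CellTox Green / CellTiter-Glo readout. Signal is normalised to DMSO and benzethonium chloride controls. Value is the normalised response at the highest dose.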

[20] = test system: BT-549; experiment: as above
Protocol: as §2

[21] = test system: CAL-120; experiment: as above
Protocol: as §2

[22] = test system: CAL-148; experiment: as above
Protocol: as §2

[23] = test system: CAL-51; experiment: as above
Protocol: as §2

[24] = test system: CAL-85-1; experiment: as above
Protocol: as §2

[25] = test system: DU-4475; experiment: as above
Protocol: as §2

[26] = test system: HCC1143; experiment: as above
Protocol: as §2

[27] = test system: HCC1599; experiment: as above
Protocol: as §2

[28] = test system: HCC1937; experiment: as above
Protocol: as §2

[29] = test system: HDQ-P1; experiment: as above
Protocol: as §2

[30] = test system: Hs578T; experiment: as above
Protocol: as §2

[31] = test system: MCF-10A; experiment: as above
Protocol: as §2

[32] = test system: MDA-MB-231; experiment: as above
Protocol: as §2

[33] = test system: MDA-MB-436; experiment: as above
Protocol: as §2

[34] = test system: MDA-MB-453; experiment: as above
Protocol: as §2

[35] = test system: MDA-MB-468; experiment: as above
Protocol: as §2

[36] = test system: MFM-223; experiment: as above
Protocol: as §2

[37] = test system: SK-BR-3; experiment: as above
Protocol: as §2

SMILES | normalised response [1] | normalised response [2] | normalised response [3] | normalised response [4] | normalised response [5] | normalised response [6] | normalised response [7] | normalised response [8] | normalised response [9] | normalised response [10] | normalised response [11] | normalised response [12] | normalised response [13] | normalised response [14] | normalised response [15] | normalised response [16] | normalised response [17] | normalised response [18] | normalised response [19] | normalised response [20] | normalised response [21] | normalised response [22] | normalised response [23] | normalised response [24] | normalised response [25] | normalised response [26] | normalised response [27] | normalised response [28] | normalised response [29] | normalised response [30] | normalised response [31] | normalised response [32] | normalised response [33] | normalised response [34] | normalised response [35] | normalised response [36] | normalised response [37]
Nc1ncnc2c1c(COc1cccc(Cl)c1)nn2C1CCOCC1 (10000 nM) | 106% | 110% | 109% | 96% | 109% | 91.3% | 103% | 104% | 106% | 103% | 109% | 110% | 86.3% | 106% | 79.2% | 104% | 112% | 98.8% | 86.8% | 88.1% | 107% | 113% | 101% | 90.2% | 101% | 98.2% | 98.6% | 95.3% | 92.2% | 100% | 89.3% | 89.6% | 89.3% | 88.3% | 92.3% | 96.8% | 102%
COc1ccc(-c2ccc3c(N4CCOC[C@@H]4C)nc(N4CCOC[C@@H]4C)nc3n2)cc1CO [AZD8055] (10000 nM) | 48% | 111% | 102% | 56.6% | 76.6% | 88.1% | 82.6% | -36.9% | 86.4% | 97.3% | 99.7% | 94.8% | 76.3% | 97.3% | 68.7% | 92.3% | 27.8% | 83.7% | 42.5% | 19.9% | 18.8% | 14.6% | 15.9% | 27.6% | 15.3% | 25.3% | 77.3% | 38.3% | 29% | 22.4% | 21.4% | 33.5% | 46.4% | 27.2% | 21% | 26.4% | 18.2%
C[C@]12CC[C@H](O)CC1=CC[C@@H]1[C@@H]2CC[C@]2(C)C(c3cccnc3)=CC[C@@H]12 [Abiraterone] (5000 nM) | 99.7% | 128% | 98% | 87.5% | 96.6% | 77.8% | 111% | 107% | 113% | 120% | 62.7% | 116% | 76.5% | 122% | 111% | 110% | 151% | 101% | 97% | 96.4% | 103% | 104% | 98.4% | 112% | 99.6% | 97.1% | 107% | 97.7% | 104% | 102% | 109% | 101% | 100% | 112% | 99.3% | 103% | 104%
CN(C)CCN1C(=O)c2cccc3cc(N)cc(c23)C1=O [Amonafide] (10000 nM) | 97.8% | 122% | 101% | 32.8% | 23.1% | 63.4% | 83.8% | 93.5% | 98% | 120% | 87% | 114% | 77% | 111% | 63.8% | 112% | 125% | 100% | 43.9% | 47% | 52.3% | 25.4% | 17.7% | 47.6% | 14.6% | 52.3% | 57.2% | 55.7% | 53.1% | 61.7% | 45% | 39.2% | 38.8% | 77.8% | 43.5% | 69.7% | 31.9%
CC(C)(C#N)c1cc(Cn2cncn2)cc(C(C)(C)C#N)c1 [Anastrozole] (10000 nM) | 93% | 98.8% | 99.1% | 105% | 100% | 92.9% | 95.3% | – | 106% | 69.8% | 105% | 77.6% | 105% | – | 107% | 88% | 116% | 89.5% | 97.5% | 102% | 98.3% | 104% | 98.6% | 104% | 103% | 102% | 99.8% | 101% | 100% | 100% | 101% | 99.9% | 96% | 108% | 105% | 103% | 108%
CC(C)c1c(C(=O)Nc2ccccc2)c(-c2ccccc2)c(-c2ccc(F)cc2)n1CC[C@@H](O)C[C@@H](O)CC(=O)O [Atorvastatin] (10000 nM) | 104% | 102% | 45.3% | 99.2% | -23.5% | 86.1% | 98% | 101% | 103% | 92.4% | 85.6% | 7.6% | 1.75% | -37.9% | 83% | 88% | 121% | 101% | 11.1% | 70% | 47.4% | 94.8% | 21.2% | 52.7% | 87.4% | 55.3% | 83.4% | 68.3% | 44% | 37.8% | 4.77% | 3.78% | 71.4% | 89.7% | 19.1% | 76.1% | 79.8%
O=C(O)CCCc1ccc(N(CCCl)CCCl)cc1 [Chlorambucil] (10000 nM) | 99.8% | 78.8% | 102% | 95.3% | 81.7% | 82.5% | 98.1% | 102% | 105% | 105% | 104% | 124% | 83% | 104% | 66.2% | 102% | 141% | 99.2% | 96% | 91.9% | 100% | 103% | 117% | 96.2% | 96.9% | 96.9% | 89.3% | 94.9% | 101% | 103% | 97.3% | 97.6% | 81.3% | 123% | 94.1% | 108% | 101%
Cn1c(=O)n(-c2ccc(C(C)(C)C#N)cc2)c2c3cc(-c4cnc5ccccc5c4)ccc3ncc21 [Dactolisib] (1000 nM) | 101% | 112% | 104% | -65% | 81.3% | 64.6% | 102% | 130% | 107% | 45.6% | 115% | 101% | 87.3% | 126% | 112% | 104% | 170% | 28.8% | 61.8% | 25.9% | 26.2% | 33.1% | 23.5% | 43% | 30.4% | 37.5% | 82% | 58% | 52.4% | 33.9% | 52.3% | 51.3% | 57% | 37.9% | 31.5% | 42.3% | 27.2%
Nc1nc(OCc2cc(Br)cs2)c2[nH]cnc2n1 [Lomeguatrib] (10000 nM) | 95.9% | 96.6% | 104% | 69.2% | 89.2% | 114% | 97.9% | 98% | 99.2% | – | 104% | 108% | 75.2% | 112% | 94.1% | 92.8% | 161% | 98.5% | 98.9% | 93.5% | 101% | 101% | 67.2% | 97% | 102% | 94.5% | 106% | 103% | 96.5% | 98.7% | 97.4% | 98.5% | 90.6% | 91.3% | 87.1% | 91.8% | 93.9%
